Structures can show the parent of a compound that is named as a salt. Where two headings read alike, the source gives them in different places.
Experiment: Plasma pharmacokinetics and brain distribution after single IV, IP and oral administration
Type: in vivo
Conditions: for Kp at 0.08 h / Kp at 0.35 h / Kp at 1 h / Kp at 3 h / Kp at 6 h: read-out: Brain-to-plasma ratio
Method: (§1) The objective of this study was to investigate the plasma pharmacokinetics and brain distribution of Compound (14 in male C57BL/6 mice following a single intravenous, intraperitoneal and oral administration. A group of sixty-three male mice were divided into three groups (Group 1: 2 mg/kg/IV; Group 2: 10 mg/kg/IP and Group 3: 10 mg/kg/PO) with each group comprising of twenty-one mice.
Animals in Group 1 were administered intravenously with Compound 15 solution formulation in 5% NMP, 5% Solutol HS-15, 30% PEG-400 and 60% Captisol (20% w/v) at 2 mg/kg dose. […] Considering mortality intravenous dose was reduced to 2 mg/kg.
Animals in Group 2 and 3 were administered with Compound 15 solution formulation in 5% NMP, 5% Solutol HS-15, 30% PEG-400 and 60% Captisol (20% w/v) at a dose of 10 mg/kg by intraperitoneal and oral route respectively.
(§2) Blood samples (approximately 60 μL) were collected under light isoflurane anesthesia from retro orbital plexus from a set of three mice at 0.08, 0.35, 1, 3, 6, 12 and 24 hr. Plasma samples were separated by centrifugation of whole blood and stored below −70±10° C. until bioanalysis. Immediately after collection of blood, brain samples were collected from set of three mice at each time point. Brain samples were homogenized using ice-cold phosphate buffer saline (pH-7.4) in a ratio of 2 (buffer):1(brain); and homogenates were stored below −70±10° C. until analysis. Total homogenate volume was three times the brain weight. All samples were processed for analysis by protein precipitation using acetonitrile and analyzed with fit-for-purpose LC/MS/MS method (LLOQ2.00 ng/mL for plasma and 3.00 ng/g for brain). Pharmacokinetic parameters were calculated using the non-compartmental analysis tool of Phoenix WinNonlin® (Version 7.0). Pharmacokinetic parameters of Compound 15 are summarized below.
as §1, with “Compound 16” for “Compound (14”, “1: 10” for “1: 2”
Animals in Group 1 were administered intravenously with Compound 16 solution formulation in 5% NMP, 5% Solutol HS-15 and 90% normal saline at 10 mg/kg dose.
Animals in Group 2 and 3 were administered with Compound 16 solution formulation in 5% NMP, 5% Solutol HS-15 and 90% normal saline at a dose of 10 mg/kg by intraperitoneal and oral route respectively.
as §2, with “(LLOQ—1.00” for “(LLOQ2.00”, “16” for “15”
as §1, with “17” for “(14”, “mice. […]” for “mice.”

[1] = male, C57BL/6, mouse, brain, ip, 10 mg/kg, IP 10 mg/kg
[2] = male, C57BL/6, mouse, brain, po, 10 mg/kg, PO 10 mg/kg
[3] = male, C57BL/6, mouse, in vivo, ip, 10 mg/kg
[4] = male, C57BL/6, mouse, in vivo, ip, 10 mg/kg, 12 h
[5] = male, C57BL/6, mouse, in vivo, ip, 10 mg/kg, 24 h
[6] = male, C57BL/6, mouse, in vivo, ip, 10 mg/kg, Brain concentration, individual animal
[7] = male, C57BL/6, mouse, in vivo, ip, 10 mg/kg, Mean brain conc.
[8] = male, C57BL/6, mouse, in vivo, ip, 10 mg/kg, Mean plasma conc.
[9] = male, C57BL/6, mouse, in vivo, ip, 10 mg/kg, Plasma concentration, individual animal
[10] = male, C57BL/6, mouse, in vivo, iv, 2 mg/kg
[11] = male, C57BL/6, mouse, in vivo, iv, 2 mg/kg, 3 h
[12] = male, C57BL/6, mouse, in vivo, iv, 2 mg/kg, 6 h
[13] = male, C57BL/6, mouse, in vivo, iv, 2 mg/kg, 12 h
[14] = male, C57BL/6, mouse, in vivo, iv, 2 mg/kg, 24 h
[15] = male, C57BL/6, mouse, in vivo, iv, 2 mg/kg, Brain concentration, individual animal
[16] = male, C57BL/6, mouse, in vivo, iv, 2 mg/kg, Mean brain conc.

[2H]C1([2H])Oc2ccc(Nc3nc(-c4c(C)nc5ccccn45)cs3)cc2O1 [Compound 17, N-(benzo[d][1,3]dioxol-5-yl-2,2-d2)-4-(2-methylimidazo[1,2-c]pyridin-3-yl)thiazol-2-amine hydrochloride]
Oral bioavailability, % F (PO 10 mg/kg, AUClast considered, hydrochloride, 10 mg/kg): ~100%
AUClast (brain, IP 10 mg/kg): 360.87 ng·h/g
AUClast (brain, IV 2 mg/kg): 97.08 ng·h/g
AUCinf (brain, PO 10 mg/kg): 204.06 ng·h/g
AUClast (brain, PO 10 mg/kg): 171.84 ng·h/g
Kp at 0.08 h [1]: 0.61
Kp at 0.35 h [1]: 0.52
Kp at 1 h [1]: 0.39
Kp at 3 h [1]: 1.1
Kp at 6 h [1]: 0.59
Kp (male, C57BL/6, mouse, brain, ip, 10 mg/kg, IP 10 mg/kg, read-out: brain-to-plasma ratio, range over time): 0.39 to 1.1
Kp (male, C57BL/6, mouse, brain, iv, 2 mg/kg, IV 2 mg/kg, read-out: brain-to-plasma ratio, range over time): 0.18 to 4.03
Kp at 0.08 h [2]: 0.33
Kp at 0.35 h [2]: 0.32
Kp at 1 h [2]: 0.48
Kp at 3 h [2]: 0.32
Kp at 6 h [2]: 0.23
Kp (male, C57BL/6, mouse, brain, po, 10 mg/kg, PO 10 mg/kg, read-out: brain-to-plasma ratio, range over time): 0.23 to 0.48
Kp (male, C57BL/6, mouse, brain, po, 10 mg/kg, summary data, read-out: Brain to plasma ratio following a single oral dose): 0.48
Brain concentrations quantifiable up to [3]: up to 6 hr
Plasma concentrations quantifiable up to [3]: up to 6 hr
Brain concentration, individual animal [4]: 0.00 ng/g
Plasma concentration, individual animal [4]: 0.00 ng/mL
Brain concentration, individual animal [5]: 0.00 ng/g
Plasma concentration, individual animal [5]: 0.00 ng/mL
concentration at 0.08 h [6]: 285 ng/g
concentration at 0.35 h [6]: 291 ng/g
concentration at 1 h [6]: 65.9 ng/g
concentration at 12 h [6]: 0 ng/g
concentration at 24 h [6]: 0 ng/g
concentration at 0.35 h [7]: 236 ng/g
concentration at 1 h [7]: 90.3 ng/g
concentration at 3 h [7]: 82 ng/g
concentration at 6 h [7]: 26 ng/g
concentration at 12 h [7]: 0 ng/g
concentration at 24 h [7]: 0 ng/g
concentration at 0.35 h [8]: 458 ng/mL
concentration at 1 h [8]: 232 ng/mL
concentration at 3 h [8]: 74.9 ng/mL
concentration at 6 h [8]: 43.7 ng/mL
concentration at 12 h [8]: 0 ng/mL
concentration at 24 h [8]: 0 ng/mL
concentration at 0.08 h [9]: 530 ng/mL
concentration at 0.35 h [9]: 478 ng/mL
concentration at 1 h [9]: 223 ng/mL
concentration at 12 h [9]: 0 ng/mL
concentration at 24 h [9]: 0 ng/mL
Brain concentrations quantifiable up to [10]: up to 1 hr
Vss, fold more than normal volume of total body water (0.7 L/kg) [10]: 6.3 fold
Brain concentration, individual animal [11]: 0.00 ng/g
Plasma concentration, individual animal [11]: 0.00 ng/mL
Brain concentration, individual animal [12]: 0.00 ng/g
Plasma concentration, individual animal [12]: 0.00 ng/mL
Brain concentration, individual animal [13]: 0.00 ng/g
Plasma concentration, individual animal [13]: 0.00 ng/mL
Brain concentration, individual animal [14]: 0.00 ng/g
Plasma concentration, individual animal [14]: 0.00 ng/mL
concentration at 0.08 h [15]: 44.7 ng/g
concentration at 1 h [15]: 17.1 ng/g
concentration at 3 h [15]: 0 ng/g
concentration at 6 h [15]: 0 ng/g
concentration at 12 h [15]: 0 ng/g
concentration at 24 h [15]: 0 ng/g
concentration at 0.08 h [16]: 44.9 ng/g
concentration at 0.35 h [16]: 180 ng/g
concentration at 1 h [16]: 13.8 ng/g
concentration at 3 h [16]: 0 ng/g

From patent US12215106B2, “Pharmaceutical compounds and therapeutic methods” (RUTGERS, THE STATE UNIVERSITY OF NEW JERSEY, priority 2018, dated 2025)
